US7462600B2, “Macrolides” (Pfizer Inc, priority 2004, dated 2008)
In brackets after ≈: the same amount, converted by molar mass.

What was measured:
Assay type in all cases: cell-based
[1] = tested on: Haemophilus influenzae 1218; assay: MIC, microtiter broth dilution (NCCLS M100-S14), H. influenzae 1218 (susceptible); settings: H. influenzae 1218 (susceptible)
Method in brief: (§1)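 Steps: dissolve compound in DMSO to 40 mg/ml stock; dilute in broth across microtiter trays; inoculate strains; record MIC per NCCLS M100-S14.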

[2] = tested on: Streptococcus pneumoniae 1175; settings: S. pneumoniae 1175 (mefA); microtiter broth dilution
Method in brief: as §1

[3] = tested on: Streptococcus pneumoniae 1095; settings: S. pneumoniae 1095 (ermB); microtiter broth dilution
Method in brief: as §1

[4] = tested on: Streptococcus pyogenes 1079; assay: MIC, microtiter broth dilution (NCCLS M100-S14), S. pyogenes 1079 (ermB); settings: S. pyogenes 1079 (ermB)
Method in brief: as §1

[5] = tested on: Streptococcus pneumoniae 1016; assay: MIC, microtiter broth dilution (NCCLS M100-S14), S. pneumoniae 1016 (susceptible); settings: S. pneumoniae 1016 (susceptible)
Method in brief: as §1

Row | Structure (SMILES) | MIC H. influenzae 1218 [1] [µg/mL] | MIC S. pneumo. 1175 [2] [µg/mL] | MIC S. pneumo. 1095 [3] [µg/mL] | MIC S. pyogenes 1079 [4] [µg/mL] | MIC S. pneumo. 1016 [5] [µg/mL]
1 | CCC1OC(=O)C(C)C(=O)C(C)C(OC2OC(C)CC(N(C)C)C2O)C(C)(OC)CC(C)C(=O)C(C)C2N(C3CCN(Cc4cncc5ccccc45)C3)C(=O)OC12C (stereo not shown) [Example 9.10, (isoquinolin-4-yl)methyl] | 0.5 (≈ 0.608 µM) | 0.25 (≈ 0.304 µM) | 8 (≈ 9.72 µM) | 64 (≈ 77.8 µM) | <0.06
2 | CCC1OC(=O)C(C)C(=O)C(C)C(OC2OC(C)CC(N(C)C)C2O)C(C)(OC)CC(C)C(=O)C(C)C2N(CC3CCCN3C(=O)c3cc4ccccn4n3)C(=O)OC12C [Example 10.14, 3-descladinosyl-11,12-dideoxy-6-O-methyl-3-oxo-12,11-(oxycarbonyl-((1-(pyrazolo[1,5-a]pyridine-2-carbonyl)-(R)-pyrrolidin-2-yl)-methyl)-imino)-erythromycin A] | 0.25 (≈ 0.298 µM) | 0.12 (≈ 0.143 µM) | <0.06 | 32 (≈ 38.1 µM) | <0.06
3 | CCC1OC(=O)C(C)(F)C(=O)C(C)C(OC2OC(C)CC(N(C)C)C2O)C(C)(OC)CC(C)C(=O)C(C)C2N(CC3CCCN3C(=O)c3nc4ccccc4[nH]3)C(=O)OC12C [Example 10.27, 3-descladinosyl-11,12-dideoxy-2-fluoro-6-O-methyl-3-oxo-12,11-(oxycarbonyl-(1-(1H-benzo[d]imidazole-2-carboxyl)-((R)-pyrrolidin-2-yl)-methyl)-imino)-erythromycin A] | 2 (≈ 2.33 µM) | 0.25 (≈ 0.291 µM) | <0.06 | 8 (≈ 9.32 µM) | <0.06
4 | CCC1OC(=O)C(C)C(=O)C(C)C(OC2OC(C)CC(N(C)C)C2O)C(C)(OC)CC(C)C(=O)C(C)C2N(CC3CCN(Cc4cccc5nccnc45)C3)C(=O)OC12C [Example 11.02, 3-descladinosyl-11,12-dideoxy-6-O-methyl-3-oxo-12,11-(oxycarbonyl-(1-((quinoxalin-8-yl)-methyl)-((S)-pyrrolidin-3-yl)-methyl)-imino)-erythromycin A] | 0.5 (≈ 0.597 µM) | 0.25 (≈ 0.298 µM) | <0.06 | 4 (≈ 4.77 µM) | <0.06
5 | CCC1OC(=O)C(C)C(=O)C(C)C(OC2OC(C)CC(N(C)C)C2O)C(C)(OC)CC(C)C(=O)C(C)C2N(CC3CCN(Cc4c[nH]c5ncccc45)C3)C(=O)OC12C [Example 11.05, 3-descladinosyl-11,12-dideoxy-6-O-methyl-3-oxo-12,11-(oxycarbonyl-(1-((1H-pyrrolo[2,3-b]pyridin-3-yl)-methyl)-((S)-pyrrolidin-3-yl)-methyl)-imino)-erythromycin A] | 0.5 (≈ 0.605 µM) | 0.5 (≈ 0.605 µM) | <0.06 | 4 (≈ 4.84 µM) | <0.06
6 | CCC1OC(=O)C(C)C(=O)C(C)C(OC2OC(C)CC(N(C)C)C2O)C(C)(OC)CC(C)C(=O)C(C)C2N(CC3CCN(Cc4ccnc5ccccc45)C3)C(=O)OC12C [Example 11.11, 3-descladinosyl-11,12-dideoxy-6-O-methyl-3-oxo-12,11-(oxycarbonyl-(1-((quinolin-4-yl)-methyl)-((S)-pyrrolidin-3-yl)-methyl)-imino)-erythromycin A] | 1 (≈ 1.19 µM) | 0.12 (≈ 0.143 µM) | 0.12 (≈ 0.143 µM) | 8 (≈ 9.56 µM) | <0.06
7 | CCC1OC(=O)C(C)C(=O)C(C)C(OC2OC(C)CC(N(C)C)C2O)C(C)(OC)CC(C)C(=O)C(C)C2N(CC3CCCN3C(=O)c3cccc4ncccc34)C(=O)OC12C [Example 12.11, 3-descladinosyl-11,12-dideoxy-6-O-methyl-3-oxo-12,11-(oxycarbonyl-((1-(quinoline-5-carbonyl)-(S)pyrrolidin-2-yl)-methyl)-imino)-erythromycin A] | 8 (≈ 9.4 µM) | 1 (≈ 1.18 µM) | 0.5 (≈ 0.588 µM) | >64.00 | <0.06
8 | CCC1OC(=O)C(C)C(=O)C(C)C(OC2OC(C)CC(N(C)C)C2O)C(C)(OC)CC(C)C(=O)C(C)C2N(CC3(O)CCN(Cc4c[nH]c5ncccc45)CC3)C(=O)OC12C (stereo not shown) [Example 14.01, (1H-pyrrolo[2,3-b]pyridin-3-yl)methyl] | 4 (≈ 4.67 µM) | 1 (≈ 1.17 µM) | 32 (≈ 37.4 µM) | >64.00 | <0.06
